Assay results reported in patent US9150566B2, “2-(1,2,3-triazol-2-yl)benzamide and 3-(1,2,3-triazol-2-YL)picolinamide derivatives as orexin receptor antagonists” (ACTELION PHARMACEUTICALS LTD., priority 2011, dated 2015).

What was measured:
CYP3A4 = CYP3A4 (Homo sapiens (Human), UniProt P08684); experiment: CYP3A4 inhibition assay (human liver microsomes, testosterone 6β-hydroxylation); details: read-out: CYP3A4 IC50, 40 μM testosterone
human orexin-2 receptor = human orexin-2 receptor (Homo sapiens (Human), UniProt O43614); experiment: In vitro intracellular calcium measurements (FLIPR), antagonistic activity on orexin-2 receptor; format: cell-based; details: CHO cells expressing human orexin-2 receptor; FLIPR; 3 nM orexin-A agonist; 120 min antagonist incubation; geometric mean if determined several times; read-out: IC50 OX2
Sequence of human orexin-2 receptor (O43614 whole entry): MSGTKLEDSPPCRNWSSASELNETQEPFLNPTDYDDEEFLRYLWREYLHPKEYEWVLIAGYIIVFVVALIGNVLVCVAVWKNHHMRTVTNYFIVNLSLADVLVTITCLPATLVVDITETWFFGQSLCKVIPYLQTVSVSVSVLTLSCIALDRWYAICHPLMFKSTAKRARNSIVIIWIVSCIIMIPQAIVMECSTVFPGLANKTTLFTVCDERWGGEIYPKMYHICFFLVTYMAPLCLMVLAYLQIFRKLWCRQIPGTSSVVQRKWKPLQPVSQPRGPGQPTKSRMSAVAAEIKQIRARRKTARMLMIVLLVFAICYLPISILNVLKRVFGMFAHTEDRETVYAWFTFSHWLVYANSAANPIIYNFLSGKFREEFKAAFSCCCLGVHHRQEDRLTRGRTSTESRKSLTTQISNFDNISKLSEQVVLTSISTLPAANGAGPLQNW
Description: (§1) In Vitro Assay: Intracellular Calcium Measurements:
(§2) Chinese hamster ovary (CHO) cells expressing the human orexin-1 receptor and the human orexin-2 receptor, respectively, are grown in culture medium (Ham F-12 with L-Glutamine) containing 300 μg/mL G418, 100 U/mL penicillin, 100 μg/mL streptomycin and 10% heat inactivated fetal calf serum (FCS). The cells are seeded at 20′000 cells/well into 384-well black clear bottom sterile plates (Greiner). The seeded plates are incubated overnight at 37° C. in 5% CO2.
(§3) Within the Fluorescent Imaging Plate Reader (FLIPR Tetra, Molecular Devices), antagonists are added to the plate in a volume of 10 μL/well, incubated for 120 min and finally 10 μL/well of agonist is added. Fluorescence is measured for each well at 1 second intervals, and the height of each fluorescence peak is compared to the height of the fluorescence peak induced by 3 nM orexin-A with vehicle in place of antagonist. […] Optimized conditions were achieved by adjustment of pipetting speed and cell splitting regime. The calculated IC50 values may fluctuate depending on the daily cellular assay performance. Fluctuations of this kind are known to those skilled in the art.

human orexin-1 receptor = human orexin-1 receptor (Homo sapiens (Human), UniProt O43613); experiment: In vitro intracellular calcium measurements (FLIPR), antagonistic activity on orexin-1 receptor; format: cell-based; details: CHO cells expressing human orexin-1 receptor; FLIPR; 3 nM orexin-A agonist; 120 min antagonist incubation; geometric mean if determined several times; read-out: IC50 OX1
Sequence of human orexin-1 receptor (O43613 whole entry): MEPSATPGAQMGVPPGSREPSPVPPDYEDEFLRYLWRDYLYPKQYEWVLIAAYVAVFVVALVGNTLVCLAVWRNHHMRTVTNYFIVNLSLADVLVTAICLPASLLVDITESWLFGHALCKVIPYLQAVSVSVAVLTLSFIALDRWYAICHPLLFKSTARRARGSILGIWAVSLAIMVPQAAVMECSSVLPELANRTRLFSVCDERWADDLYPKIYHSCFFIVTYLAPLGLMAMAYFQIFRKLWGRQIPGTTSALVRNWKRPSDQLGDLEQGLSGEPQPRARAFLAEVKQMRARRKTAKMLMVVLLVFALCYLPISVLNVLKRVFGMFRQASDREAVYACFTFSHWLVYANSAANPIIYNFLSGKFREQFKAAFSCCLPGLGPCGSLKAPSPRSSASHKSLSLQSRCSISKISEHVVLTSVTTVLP
Description: as §1, §2, §3

Sequence of CYP3A4 (P08684 whole entry): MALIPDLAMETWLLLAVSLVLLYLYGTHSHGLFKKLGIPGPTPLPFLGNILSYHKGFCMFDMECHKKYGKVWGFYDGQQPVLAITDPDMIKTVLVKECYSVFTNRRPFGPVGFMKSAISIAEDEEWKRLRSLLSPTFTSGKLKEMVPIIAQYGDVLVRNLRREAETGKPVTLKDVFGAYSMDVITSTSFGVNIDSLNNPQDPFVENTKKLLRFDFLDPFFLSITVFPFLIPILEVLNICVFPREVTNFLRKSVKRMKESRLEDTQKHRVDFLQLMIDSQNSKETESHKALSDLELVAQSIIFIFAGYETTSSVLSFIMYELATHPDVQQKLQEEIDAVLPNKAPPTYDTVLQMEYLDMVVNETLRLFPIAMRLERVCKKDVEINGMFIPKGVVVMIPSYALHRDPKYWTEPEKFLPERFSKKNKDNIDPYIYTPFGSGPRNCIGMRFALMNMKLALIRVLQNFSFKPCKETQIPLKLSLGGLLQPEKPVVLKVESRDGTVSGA

Structure (SMILES)	IC50 (CYP3A4)	IC50 (human orexin-2 receptor)	IC50 (human orexin-1 receptor)
O=C(c1ccccc1-n1nccn1)N1CCOC[C@H]1Cc1cccc(-c2ncon2)c1 [Example 1, [(R)-3-(3-[1,2,4]Oxadiazol-3-yl-benzyl)-morpholin-4-yl]-(2-[1,2,3]triazol-2-yl-phenyl)-methanone]	> 50000 nM	803 nM	40 nM
Cc1ccc(-n2nccn2)c(C(=O)N2CCOC[C@H]2Cc2cccc(-c3ncon3)c2)c1 [Example 2, (5-Methyl-2-[1,2,3]triazol-2-yl-phenyl)-[(R)-3-(3-[1,2,4]oxadiazol-3-yl-benzyl)-morpholin-4-yl]-methanone]	43000 nM	406 nM	7 nM
COc1ccc(C[C@@H]2COCCN2C(=O)c2ccccc2-n2nccn2)cc1-c1ccccn1 [Example 3, [(R)-3-(4-Methoxy-3-pyridin-2-yl-benzyl)-morpholin-4-yl]-(2-[1,2,3]triazol-2-yl-phenyl)-methanone]	21000 nM	3340 nM	4 nM
COc1ccc(C[C@@H]2COCCN2C(=O)c2ccccc2-n2nccn2)cc1-c1cccnc1 [Example 4, [(R)-3-(4-Methoxy-3-pyridin-3-yl-benzyl)-morpholin-4-yl]-(2-[1,2,3]triazol-2-yl-phenyl)-methanone]	1200 nM	1880 nM	6 nM
COc1ccc(C[C@@H]2COCCN2C(=O)c2ccccc2-n2nccn2)cc1-c1ncccn1 [Example 5, [(R)-3-(4-Methoxy-3-pyrimidin-2-yl-benzyl)-morpholin-4-yl]-(2-[1,2,3]triazol-2-yl-phenyl)-methanone]	> 50000 nM	2950 nM	4 nM
COc1ccc(C[C@@H]2COCCN2C(=O)c2ccccc2-n2nccn2)cc1-c1cnccn1 [Example 6]	26000 nM	1940 nM	12 nM
COc1ccc(C[C@@H]2COCCN2C(=O)c2ccccc2-n2nccn2)cc1-c1cccnn1 [Example 7, [(R)-3-(4-Methoxy-3-pyridazin-3-yl-benzyl)-morpholin-4-yl]-(2-[1,2,3]triazol-2-yl-phenyl)-methanone]	> 50000 nM	6090 nM	26 nM
COc1ccc(C[C@@H]2COCCN2C(=O)c2ccccc2-n2nccn2)cc1-c1nccs1 [Example 8, [(R)-3-(4-Methoxy-3-thiazol-2-yl-benzyl)-morpholin-4-yl]-(2-[1,2,3]triazol-2-yl-phenyl)-methanone]	3200 nM	335 nM	1 nM
COc1ccc(C[C@@H]2COCCN2C(=O)c2ccccc2-n2nccn2)cc1-c1ncco1 [Example 9, [(R)-3-(4-Methoxy-3-oxazol-2-yl-benzyl)-morpholin-4-yl]-(2-[1,2,3]triazol-2-yl-phenyl)-methanone]	8400 nM	468 nM	2 nM
COc1ccc(C[C@@H]2COCCN2C(=O)c2ccccc2-n2nccn2)cc1-n1cccn1 [Example 14, [(R)-3-(4-Methoxy-3-pyrazol-1-yl-benzyl)-morpholin-4-yl]-(2-[1,2,3]triazol-2-yl-phenyl)-methanone]	> 50000 nM	905 nM	3 nM
Cc1ccc(-n2nccn2)c(C(=O)N2CCOC[C@H]2Cc2cccc(-n3ccnn3)c2)c1 [Example 15, (5-Methyl-2-[1,2,3]triazol-2-yl-phenyl)-[(R)-3-(3-[1,2,3]triazol-1-yl-benzyl)-morpholin-4-yl]-methanone]	14000 nM	3160 nM	24 nM
Cc1ccc(-n2nccn2)c(C(=O)N2CCOC[C@H]2Cc2cccc(-c3ncccn3)c2)c1 [Example 17, (5-Methyl-2-[1,2,3]triazol-2-yl-phenyl)-[(R)-3-(3-pyrimidin-2-yl-benzyl)-morpholin-4-yl]-methanone]	33000 nM	396 nM	2 nM
O=C(c1ccccc1-n1nccn1)N1CCOC[C@H]1Cc1cccc(-c2ncccn2)c1 [Example 18, [(R)-3-(3-Pyrimidin-2-yl-benzyl)-morpholin-4-yl]-(2-[1,2,3]triazol-2-yl-phenyl)-methanone]	39000 nM	1890 nM	22 nM
Cc1ccc(-n2nccn2)c(C(=O)N2CCOC[C@H]2Cc2cccc(-n3cccn3)c2)c1 [Example 19, (5-Methyl-2-[1,2,3]triazol-2-yl-phenyl)-[(R)-3-(3-pyrazol-1-yl-benzyl)-morpholin-4-yl]-methanone]	32000 nM	369 nM	2 nM
O=C(c1ccccc1-n1nccn1)N1CCC[C@H]1Cc1cccc(-n2nccn2)c1 [Ref. 1]	5500 nM		4 nM

More lines, now with the values ahead:

IC50 (CYP3A4)	IC50 (human orexin-2 receptor)	IC50 (human orexin-1 receptor)	Structure (SMILES)
25000 nM	1530 nM	25 nM	O=C(c1cc(F)ccc1-n1nccn1)N1CCOC[C@H]1Cc1cccc(-n2cccn2)c1 [Example 20, (5-Fluoro-2-[1,2,3]triazol-2-yl-phenyl)-[(R)-3-(3-pyrazol-1-yl-benzyl)-morpholin-4-yl]-methanone]
41000 nM	318 nM	3 nM	Cc1ccc(C(=O)N2CCOC[C@H]2Cc2cccc(-n3cccn3)c2)c(-n2nccn2)c1 [Example 22, (4-Methyl-2-[1,2,3]triazol-2-yl-phenyl)-[(R)-3-(3-pyrazol-1-yl-benzyl)-morpholin-4-yl]-methanone]
6000 nM	4780 nM	34 nM	Cc1ccc(-n2nccn2)c(C(=O)N2CCOC[C@H]2Cc2cccc(-n3cncn3)c2)c1 [Example 23, (5-Methyl-2-[1,2,3]triazol-2-yl-phenyl)-[(R)-3-(3-[1,2,4]triazol-1-yl-benzyl)-morpholin-4-yl]-methanone]
> 50000 nM	1030 nM	3 nM	Cc1ccc(-n2nccn2)c(C(=O)N2CCOC[C@H]2Cc2cccc(-c3ccccn3)c2)c1 [Example 24, (5-Methyl-2-[1,2,3]triazol-2-yl-phenyl)-[(R)-3-(3-pyridin-2-yl-benzyl)-morpholin-4-yl]-methanone]
24000 nM	822 nM	21 nM	O=C(c1cc(F)ccc1-n1nccn1)N1CCOC[C@H]1Cc1cccc(-n2nccn2)c1 [Example 26, (5-Fluoro-2-[1,2,3]triazol-2-yl-phenyl)-[(R)-3-(3-[1,2,3]triazol-2-yl-benzyl)-morpholin-4-yl]-methanone]
300 nM	2110 nM	43 nM	Cc1ccc(-n2nccn2)c(C(=O)N2CCOC[C@H]2Cc2cccc(-c3ccncc3)c2)c1 [Example 28, (5-Methyl-2-[1,2,3]triazol-2-yl-phenyl)-[(R)-3-(3-pyridin-4-yl-benzyl)-morpholin-4-yl]-methanone]
25000 nM		7 nM	Cc1cccc(C(=O)N2CCOC[C@H]2Cc2cccc(-c3ncon3)c2)c1-n1nccn1 [Example 83, (3-Methyl-2-[1,2,3]triazol-2-yl-phenyl)-[(R)-3-(3-[1,2,4]oxadiazol-3-yl-benzyl)-morpholin-4-yl]-methanone]
> 50000 nM	839 nM		Cc1ccc(C(=O)N2C[C@@H](C)OC[C@H]2Cc2cccc(-c3ncccn3)c2)c(-n2nccn2)c1C [Example 112, (3,4-Dimethyl-2-[1,2,3]triazol-2-yl-phenyl)-[(2R,5R)-2-methyl-5-(3-pyrimidin-2-yl-benzyl)-morpholin-4-yl]-methanone]
28000 nM	171 nM		Cc1ccc(-n2nccn2)c(C(=O)N2C[C@@H](C)OC[C@H]2Cc2cc(-c3ncccn3)ccc2F)c1 [Example 147, [(2R,5R)-5-(2-Fluoro-5-pyrimidin-2-yl-benzyl)-2-methyl-morpholin-4-yl]-(5-methyl-2-[1,2,3]triazol-2-yl-phenyl)-methanone]
18000 nM	85 nM		C[C@@H]1CN(C(=O)c2ccc(Cl)cc2-n2nccn2)[C@H](Cc2cc(-c3ncccn3)ccc2F)CO1 [Example 153, (4-Chloro-2-[1,2,3]triazol-2-yl-phenyl)-[(2R,5R)-5-(2-fluoro-5-pyrimidin-2-yl-benzyl)-2-methyl-morpholin-4-yl]-methanone]
30000 nM	371 nM		Cc1ccc(-n2nccn2)c(C(=O)N2CCOC[C@H]2Cc2cc(-c3ncccn3)ccc2F)c1 [Example 155, [(R)-3-(2-Fluoro-5-pyrimidin-2-yl-benzyl)-morpholin-4-yl]-(5-methyl-2-[1,2,3]triazol-2-yl-phenyl)-methanone]
40000 nM	2260 nM		Cc1ccc(C(=O)N2CCOC[C@H]2Cc2cc(-c3ncccn3)ccc2F)c(-n2nccn2)c1C [Example 158, (3,4-Dimethyl-2-[1,2,3]triazol-2-yl-phenyl)-[(R)-3-(2-fluoro-5-pyrimidin-2-yl-benzyl)-morpholin-4-yl]-methanone]
17000 nM	268 nM		O=C(c1ccc(Cl)cc1-n1nccn1)N1CCOC[C@H]1Cc1cc(-c2ncccn2)ccc1F [Example 160, (4-Chloro-2-[1,2,3]triazol-2-yl-phenyl)-[(R)-3-(2-fluoro-5-pyrimidin-2-yl-benzyl)-morpholin-4-yl]-methanone]
